PMC8878501 (Marine Drugs, 2022)
pIC50: −log10 of the molar value. Positions of bridges follow the written chain, without caps; N, C: chain ends. Residues, ends and D or L forms follow the SMILES beside them.

Key:
[1] = target: rα4β2 nAChR (Rattus norvegicus, UniProt P09483+P12390); test: cell-based; format: cell-based
[2] = target: rα6/α3β2β3 nAChR (Rattus norvegicus, UniProt P04757+P12390+P12391+P43143); test: cell-based
[3] = target: rα6/α3β4 nAChR (Rattus norvegicus, UniProt P04757+P12392+P43143); test: cell-based; settings: 20–25 °C
[4] = target: hα9α10 nAChR (Homo sapiens, UniProt Q9GZZ6+Q9UGM1); test: cell-based
[5] = target: rα3β4 nAChR (Rattus norvegicus, UniProt P04757+P12392); test: cell-based; format: cell-based
[6] = target: rα7 nAChR (Rattus norvegicus, UniProt Q05941); format: cell-based; settings: at 20 μM
[7] = target: rα3β2 nAChR (Rattus norvegicus, UniProt P04757+P12390); test: cell-based; settings: 20–25 °C
[8] = target: rα9α10 nAChR (Rattus norvegicus, UniProt P43144+Q9JLB5); test: cell-based; format: cell-based
rα9α10 nAChR, sequence (P43144 26-479 limits assumed): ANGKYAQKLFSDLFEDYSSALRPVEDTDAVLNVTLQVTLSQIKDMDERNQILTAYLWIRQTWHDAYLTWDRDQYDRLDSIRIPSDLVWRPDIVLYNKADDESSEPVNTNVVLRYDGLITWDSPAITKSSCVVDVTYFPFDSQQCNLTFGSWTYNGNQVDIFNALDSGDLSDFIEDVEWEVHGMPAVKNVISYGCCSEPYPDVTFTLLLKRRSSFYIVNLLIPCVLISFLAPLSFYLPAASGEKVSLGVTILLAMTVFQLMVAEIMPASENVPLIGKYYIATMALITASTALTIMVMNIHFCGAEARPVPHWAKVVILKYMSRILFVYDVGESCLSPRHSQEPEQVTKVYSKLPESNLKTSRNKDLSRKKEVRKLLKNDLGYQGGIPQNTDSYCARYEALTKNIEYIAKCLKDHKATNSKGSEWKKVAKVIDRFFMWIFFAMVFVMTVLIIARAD
rα9α10 nAChR, sequence (Q9JLB5 25-447 limits assumed): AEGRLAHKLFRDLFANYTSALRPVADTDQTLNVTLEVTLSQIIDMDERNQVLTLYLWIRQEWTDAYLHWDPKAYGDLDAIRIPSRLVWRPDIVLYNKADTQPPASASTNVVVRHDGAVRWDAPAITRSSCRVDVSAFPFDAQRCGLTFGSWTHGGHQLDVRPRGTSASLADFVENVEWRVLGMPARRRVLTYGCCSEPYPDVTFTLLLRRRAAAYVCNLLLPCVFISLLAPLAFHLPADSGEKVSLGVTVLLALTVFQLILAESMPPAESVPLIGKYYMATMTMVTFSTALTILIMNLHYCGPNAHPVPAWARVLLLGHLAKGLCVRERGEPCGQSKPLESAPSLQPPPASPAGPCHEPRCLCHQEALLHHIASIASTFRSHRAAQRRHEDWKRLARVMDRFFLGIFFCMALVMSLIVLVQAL

rα4β2 nAChR, sequence (P09483 31-630 limits assumed): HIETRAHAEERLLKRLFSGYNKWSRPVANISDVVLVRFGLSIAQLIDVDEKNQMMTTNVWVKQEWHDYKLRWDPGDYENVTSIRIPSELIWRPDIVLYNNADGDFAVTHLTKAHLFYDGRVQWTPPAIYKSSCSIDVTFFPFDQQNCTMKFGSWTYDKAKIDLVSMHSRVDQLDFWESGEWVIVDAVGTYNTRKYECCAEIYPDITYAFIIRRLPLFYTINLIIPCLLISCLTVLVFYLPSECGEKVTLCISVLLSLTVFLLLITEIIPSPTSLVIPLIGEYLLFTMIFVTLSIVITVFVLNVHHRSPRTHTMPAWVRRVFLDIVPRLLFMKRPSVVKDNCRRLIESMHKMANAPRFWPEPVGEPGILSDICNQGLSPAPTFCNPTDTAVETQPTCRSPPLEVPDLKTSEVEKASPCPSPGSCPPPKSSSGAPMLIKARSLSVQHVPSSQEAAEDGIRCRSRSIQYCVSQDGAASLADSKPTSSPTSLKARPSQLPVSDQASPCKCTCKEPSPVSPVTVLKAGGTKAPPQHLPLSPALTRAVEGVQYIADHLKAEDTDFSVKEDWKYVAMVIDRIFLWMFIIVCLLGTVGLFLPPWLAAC
rα4β2 nAChR, sequence (P12390 25-500 limits assumed): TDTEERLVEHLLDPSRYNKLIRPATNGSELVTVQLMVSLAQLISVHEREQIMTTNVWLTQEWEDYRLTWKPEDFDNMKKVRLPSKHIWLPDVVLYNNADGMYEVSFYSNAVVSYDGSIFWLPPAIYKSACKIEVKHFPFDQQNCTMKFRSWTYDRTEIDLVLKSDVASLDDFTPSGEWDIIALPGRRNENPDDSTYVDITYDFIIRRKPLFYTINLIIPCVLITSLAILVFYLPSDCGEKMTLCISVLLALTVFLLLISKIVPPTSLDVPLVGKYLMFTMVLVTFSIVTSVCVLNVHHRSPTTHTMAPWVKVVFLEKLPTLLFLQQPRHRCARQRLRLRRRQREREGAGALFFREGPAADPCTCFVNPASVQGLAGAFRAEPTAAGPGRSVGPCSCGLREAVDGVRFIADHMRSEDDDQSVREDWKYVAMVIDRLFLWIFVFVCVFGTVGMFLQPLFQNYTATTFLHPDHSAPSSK
rα3β4 nAChR, sequence (P04757 26-499 limits assumed): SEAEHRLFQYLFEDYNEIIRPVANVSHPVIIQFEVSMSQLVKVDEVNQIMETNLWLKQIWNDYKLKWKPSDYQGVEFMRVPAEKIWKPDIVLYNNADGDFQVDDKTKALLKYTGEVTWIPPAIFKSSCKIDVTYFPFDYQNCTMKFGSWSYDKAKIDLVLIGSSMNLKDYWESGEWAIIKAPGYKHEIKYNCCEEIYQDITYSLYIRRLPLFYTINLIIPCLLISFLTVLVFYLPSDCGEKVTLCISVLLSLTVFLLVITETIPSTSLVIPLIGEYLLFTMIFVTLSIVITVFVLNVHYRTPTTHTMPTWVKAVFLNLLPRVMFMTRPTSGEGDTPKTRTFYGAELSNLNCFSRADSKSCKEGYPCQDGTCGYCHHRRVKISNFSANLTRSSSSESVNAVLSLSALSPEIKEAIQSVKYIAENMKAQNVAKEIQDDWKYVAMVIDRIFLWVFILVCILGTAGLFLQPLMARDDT
rα3β4 nAChR, sequence (P12392 21-495 limits assumed): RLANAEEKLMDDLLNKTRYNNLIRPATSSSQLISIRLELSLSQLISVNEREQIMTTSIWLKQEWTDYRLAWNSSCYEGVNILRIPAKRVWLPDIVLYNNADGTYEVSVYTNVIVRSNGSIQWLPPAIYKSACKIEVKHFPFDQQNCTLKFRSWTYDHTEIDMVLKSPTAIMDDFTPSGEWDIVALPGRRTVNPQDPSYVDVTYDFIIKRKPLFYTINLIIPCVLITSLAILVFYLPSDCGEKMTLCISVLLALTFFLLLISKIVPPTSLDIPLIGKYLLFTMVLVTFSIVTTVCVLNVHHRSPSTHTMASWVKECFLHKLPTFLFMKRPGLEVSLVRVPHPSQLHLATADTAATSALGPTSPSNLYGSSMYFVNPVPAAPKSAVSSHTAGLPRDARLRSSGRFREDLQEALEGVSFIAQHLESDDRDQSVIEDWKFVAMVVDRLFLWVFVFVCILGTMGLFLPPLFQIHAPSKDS
hα9α10 nAChR, sequence (Q9UGM1 26-479 limits assumed): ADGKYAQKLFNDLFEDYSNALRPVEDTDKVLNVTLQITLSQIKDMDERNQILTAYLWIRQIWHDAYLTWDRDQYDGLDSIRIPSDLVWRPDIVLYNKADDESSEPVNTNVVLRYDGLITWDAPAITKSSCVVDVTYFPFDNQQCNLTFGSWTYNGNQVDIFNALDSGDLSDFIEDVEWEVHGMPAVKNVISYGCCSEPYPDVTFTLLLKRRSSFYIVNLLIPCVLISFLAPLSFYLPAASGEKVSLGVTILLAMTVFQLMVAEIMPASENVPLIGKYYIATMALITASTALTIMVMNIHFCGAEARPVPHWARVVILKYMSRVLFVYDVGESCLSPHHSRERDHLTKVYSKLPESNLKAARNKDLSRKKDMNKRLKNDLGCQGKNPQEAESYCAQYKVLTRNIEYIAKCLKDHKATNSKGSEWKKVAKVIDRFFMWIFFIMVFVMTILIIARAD
hα9α10 nAChR, sequence (Q9GZZ6 25-450 limits assumed): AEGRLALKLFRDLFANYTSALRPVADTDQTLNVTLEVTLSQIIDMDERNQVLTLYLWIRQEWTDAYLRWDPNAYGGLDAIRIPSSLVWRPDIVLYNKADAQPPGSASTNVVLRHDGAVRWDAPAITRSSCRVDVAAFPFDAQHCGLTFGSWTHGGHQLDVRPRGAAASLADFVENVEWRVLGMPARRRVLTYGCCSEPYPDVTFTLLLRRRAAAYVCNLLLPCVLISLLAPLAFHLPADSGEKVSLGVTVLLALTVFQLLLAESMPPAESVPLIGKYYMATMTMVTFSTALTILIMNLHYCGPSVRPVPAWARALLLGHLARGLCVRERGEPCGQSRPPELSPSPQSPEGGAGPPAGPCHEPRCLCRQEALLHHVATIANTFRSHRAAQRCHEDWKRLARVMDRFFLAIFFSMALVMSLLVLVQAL
rα3β2 nAChR, sequence (P04757 26-499 limits assumed): as the sequence (P04757 26-499 limits assumed) above
rα3β2 nAChR, sequence (P12390 25-500 limits assumed): as the sequence (P12390 25-500 limits assumed) above
rα7 nAChR, sequence (Q05941 23-502 limits assumed): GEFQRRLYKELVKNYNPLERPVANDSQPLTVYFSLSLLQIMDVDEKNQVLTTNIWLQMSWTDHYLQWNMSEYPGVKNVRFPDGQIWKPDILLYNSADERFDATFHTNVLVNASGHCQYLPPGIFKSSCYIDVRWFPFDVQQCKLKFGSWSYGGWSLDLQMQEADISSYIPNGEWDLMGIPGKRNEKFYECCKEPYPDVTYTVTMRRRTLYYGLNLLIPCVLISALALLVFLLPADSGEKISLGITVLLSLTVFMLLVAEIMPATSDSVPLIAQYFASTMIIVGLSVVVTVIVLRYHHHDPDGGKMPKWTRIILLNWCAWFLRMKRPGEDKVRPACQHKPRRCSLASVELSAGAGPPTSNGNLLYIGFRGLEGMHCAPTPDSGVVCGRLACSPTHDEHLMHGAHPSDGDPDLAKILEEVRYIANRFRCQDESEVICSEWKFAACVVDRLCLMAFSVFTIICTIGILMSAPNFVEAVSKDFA

Structure (SMILES): CC[C@H](C)[C@@H]1NC(=O)[C@H](CCC(=O)O)NC(=O)[C@@H]2CCCN2C(=O)[C@H](Cc2c[nH]cn2)NC(=O)[C@H]([C@@H](C)O)NC(=O)[C@H](CCC(N)=O)NC(=O)[C@H](C)NC(=O)[C@@H]2CSSC[C@H](NC(=O)[C@H](CCC(=O)O)NC(=O)[C@@H](N)CC(=O)O)C(=O)N[C@@H](CSSC[C@@H](C(N)=O)NC1=O)C(=O)N[C@@H](CO)C(=O)N[C@@H](CC(N)=O)C(=O)N1CCC[C@H]1C(=O)N[C@@H](CO)C(=O)N2 [QuIA] (H-DECCSNPSCAQTHPEIC-NH2; disulfide 3-9, 4-17)
- pIC50 [1]: < 5.00
- blocking of ACh-induced current ([1]; at 10 µM): ^a Values in parentheses are a 95% confidence interval (C.I.). ^b Less than 50% blocking at 10 µM. All receptors are of rat (r) or human (h) origin, except α1β1δε, which is of mouse (m) origin. ND, not determined.
- pIC50 [2]: < 5.00
- blocking of ACh-induced current ([2]; at 10 µM): ^a Values in parentheses are a 95% confidence interval (C.I.). ^b Less than 50% blocking at 10 µM. All receptors are of rat (r) or human (h) origin, except α1β1δε, which is of mouse (m) origin. ND, not determined.
- pIC50 [3]: 7.04
- pIC50 [4]: < 5.00
- blocking of ACh-induced current ([4]; at 10 µM): ^a Values in parentheses are a 95% confidence interval (C.I.). ^b Less than 50% blocking at 10 µM. All receptors are of rat (r) or human (h) origin, except α1β1δε, which is of mouse (m) origin. ND, not determined.
- pIC50 [5]: < 5.00
- blocking of ACh-induced current ([5]; at 10 µM): ^a Values in parentheses are a 95% confidence interval (C.I.). ^b Less than 50% blocking at 10 µM. All receptors are of rat (r) or human (h) origin, except α1β1δε, which is of mouse (m) origin. ND, not determined.
- blocking of ACh-induced current [6]: less than 50%
- pIC50 [7]: 7.25
- pIC50 [8]: < 5.00
- blocking of ACh-induced current ([8]; at 10 µM): ^a Values in parentheses are a 95% confidence interval (C.I.). ^b Less than 50% blocking at 10 µM. All receptors are of rat (r) or human (h) origin, except α1β1δε, which is of mouse (m) origin. ND, not determined.
